Measurements from patent publication US20100209934A1, “METHOD OF IDENTIFYING AGENTS WHICH MODULATE THE ACTIVITY OF CALCIUM-ACTIVATED CHLORIDE CHANNEL” (SNU R&DB FOUNDATION, priority 2007, published 2010).
Like-named read-outs stand apart in the source and are kept apart here.

What was measured:
hANO1 = assay: Current recording in hANO1/ETAR-HEK cells; format: cell-based, human; conditions: 50 nM endothelin-1
Source text: The hANO1 (human TMEM16A; NM_018043, GI: 40354209) was cloned from human trachea total RNAs (Clontech, Palo Alto, Calif.) by PCR method using following primers; forward primer 5′-CTCGAGGCCACCATGAGGGTCAACGAGAAGTACTC-3′ (SEQ ID NO: 8) and reverse primer 5′-GGTACCCTACAGGACGCCCCCGTGGTAG-3′ (SEQ ID NO: 9). The PCR product was cut with XhoI and KpnI, and then inserted into XhoI/KpnI site of pSDTF or pEGFP-N1.
To form gigaseals, individual cell surfaces were touched with a ˜3 Mohm Sylgard-coated glass pipette with gentle suction, and the junction potential was then adjusted to 0 mV. The membrane in contact with the pipette was then ruptured by suction to form a whole cell. The pipette solution contained 140 mM NMDG-Cl, 2 mM MgCl2, 10 mM HEPES, 2 mM ATP, and 0.3 mM GTP adjusted to pH 7.2, and the bath solution contained 140 mM NMDG-Cl, 2 mM MgCl2 and 10 mM HEPES (pH 7.2). For ion selectivity experiments, 140 mM NMDG-Cl was replaced with equimolar NaCl, NaL NaBr, NaNO3, NaF, or Na-gluconate in the bath solution. To determine current-voltage relationships, voltage ramps from −80 or −100 mV to +80 or +100 mV were delivered for 350 ms, or voltage-pulses from −100 mV to +100 mV were delivered for 400 ms to whole cells. When mANO1 was activated by 300 nM intracellular Ca^2+, voltage-pulses of 2500 ms were delivered. […]

mANO1 [1] = assay: Whole-cell current response to GPCR stimulation in HEK 293T cells co-transfected with mANO1 and a GPCR; format: cell-based, mouse
Experimental: HEK 293T cells were transfected with pEGFP-N1 (control) (1.0 μg) or pEGFP-N-1-mANO1 (0.8˜1.0 μg) and/or any one of the GPCR cDNAs (1.0 μg) obtained in Reference Example 2, using a FuGENE® HD transfection reagent (Roche Diagnostics, Penzberg, Germany). Transfected cells were maintained in DMEM supplemented with heat inactivated 10% fetal bovine serum (GIBCO BRL, Rockville, Md.) and penicillin-streptomycin at 37 in a 5% CO2 humidified atmosphere. One or two days after transfection, transfected cells were used for biochemical and electrophysiological experiments.
(§1) To form gigaseals, individual cell surfaces were touched with a ˜3 Mohm Sylgard-coated glass pipette with gentle suction, and the junction potential was then adjusted to 0 mV. The membrane in contact with the pipette was then ruptured by suction to form a whole cell. The pipette solution contained 140 mM NMDG-Cl, 2 mM MgCl2, 10 mM HEPES, 2 mM ATP, and 0.3 mM GTP adjusted to pH 7.2, and the bath solution contained 140 mM NMDG-Cl, 2 mM MgCl2 and 10 mM HEPES (pH 7.2). For ion selectivity experiments, 140 mM NMDG-Cl was replaced with equimolar NaCl, NaL NaBr, NaNO3, NaF, or Na-gluconate in the bath solution. To determine current-voltage relationships, voltage ramps from −80 or −100 mV to +80 or +100 mV were delivered for 350 ms, or voltage-pulses from −100 mV to +100 mV were delivered for 400 ms to whole cells. When mANO1 was activated by 300 nM intracellular Ca^2+, voltage-pulses of 2500 ms were delivered. Whole-cell currents were amplified using an Axopatch 200B amplifier (Molecular Device, Sunnyvale, Calif.) and stored in a personal computer after digitization by a Digidata 1440 (Molecular Device). For single-channel current recordings, cell-attached or inside-out patches were formed from gigaseals. The pipette and control bath solution contained 140 mM NMDG-Cl, 2 mM MgCl2 and 10 mM HEPES (pH 7.2). […] To create amplitude histograms, pClamp software (version 6.0, Molecular Device) was used to analyze open and closed single-channel current events. The half-amplitude algorithm was used to determine an open event. The minimum duration of an open event was set at 0.1 ms.
Under physiological conditions CaCCs are known to be activated by GPCR stimulation. Endothelin-1 is a powerful vasoconstrictor that depolarizes vascular smooth muscle by activating CaCCs (Klockner, U. & Isenberg, G., Pflugers Arch. 418, 168-75 (1991); and Salter, K. J. & Kozlowski, R. Z., J Pharmacol Exp Ther. 279, 1053-62 (1996)). Thus, mANO1 and endothelin receptor subtype A (ETAR) were transfected into HEK 293T cells, along with GFP for visual identification of transfected cells, in accordance with the method of Reference Example 5. Whole cells were used to test the current response of mANO1 to ETAR stimulation. Pipette and bath solutions contained 140 mM N-methyl D-glucamine (NMDG)-Cl, which permitted Cl^− to be used as the main charge carrier. The pipette solution was Ca^2+ free and contained no EGTA. […] In contrast, endothelin-1 evoked currents were minimal in HEK cells transfected with ETAR or control (GFP-transfected only) cells. When mANO1 was transfected alone, 50 nM endothelin-1 evoked appreciable currents; presumably because of the presence of endogenous endothelin receptors in HEK cells.

mANO1 [2] = assay: FLIPR membrane potential (voltage-sensing fluorescence) assay in mANO1-stably expressing HEK cells; format: cell-based, mouse; conditions: for membrane potential change detected by fluorescent intensity: 100 μM ATP or 10 μM A23187, mANO1-stably expressing HEK cells, not seen in control HEK cells
Experimental: The activity of the ANO1-stable cell line was characterized with a FLIPR® Membrane Potential assay kit (Molecular devices, Sunnyvale, Calif.) according to the manufacture's instructions. ANO1-stable cell lines were seeded into poly-D-lysine coated 96-well plates (50,000 cells/each well). One day after the plating, the cells were incubated with 50 μl Hank's balanced salt solution (HBSS) containing membrane potential dye for 40 min at 37° C. To test the activity of ANO1 stable cell line, 100·μM ATP or 10·μM A23187 (Sigma, St Louis, Mo., USA) was added to each well for 20 sec after starting detection. The fluorescence intensity was measured by a fluorometric imaging plate reader (FlexStation™ II, MolecularDevices). Membrane potential dye was excited at 530 nm, and the intensity of fluorescence emitted at 565 nm was measured.
To determine if ANO1 is applicable for high-throughput screening (HTS) analysis, we constructed a stable cell line that constitutively expresses mANO1 (Reference example 7). The mANO1 stable cell line was grown in wells of a 96-well plate. mANO1-stably expressing HEK cells were incubated with a voltage sensor fluorescent dye (FLIPR®-membrane potential assay kit, Molecular Device) to detect change in membrane potential when ANO1 is activated. When ANO1 is activated, Cl^− would flux out the cell to depolarize the membrane, which makes the fluorescence dye fluoresce. After wash out the fluorescent dye, 100 μM ATP was applied. […] Fluorescent intensity was detected at excitation 530 nm and emission 565 nm by FlexStation 2 (Molecular device). […] F/F0: ratio of fluorescence intensity. Pretreatment of 2APB, a known blocker of IP3 receptor, blocked the ATP induced-membrane potential change in ANO1-stably expressing HEK cells (FIG. 13C).

mANO1 [3] = target: T1, mANO1 (Mus musculus, UniProt Q8BHY3, S527P); assay: Ca2+ activation of macroscopic currents in inside-out patches from ANO1/ETAR-HEK cells; format: biochemical; parameters: expressed in transfected cells; conditions: for EC50: inside-out patches
T1 sequence (Q8BHY3 1-960 S527P): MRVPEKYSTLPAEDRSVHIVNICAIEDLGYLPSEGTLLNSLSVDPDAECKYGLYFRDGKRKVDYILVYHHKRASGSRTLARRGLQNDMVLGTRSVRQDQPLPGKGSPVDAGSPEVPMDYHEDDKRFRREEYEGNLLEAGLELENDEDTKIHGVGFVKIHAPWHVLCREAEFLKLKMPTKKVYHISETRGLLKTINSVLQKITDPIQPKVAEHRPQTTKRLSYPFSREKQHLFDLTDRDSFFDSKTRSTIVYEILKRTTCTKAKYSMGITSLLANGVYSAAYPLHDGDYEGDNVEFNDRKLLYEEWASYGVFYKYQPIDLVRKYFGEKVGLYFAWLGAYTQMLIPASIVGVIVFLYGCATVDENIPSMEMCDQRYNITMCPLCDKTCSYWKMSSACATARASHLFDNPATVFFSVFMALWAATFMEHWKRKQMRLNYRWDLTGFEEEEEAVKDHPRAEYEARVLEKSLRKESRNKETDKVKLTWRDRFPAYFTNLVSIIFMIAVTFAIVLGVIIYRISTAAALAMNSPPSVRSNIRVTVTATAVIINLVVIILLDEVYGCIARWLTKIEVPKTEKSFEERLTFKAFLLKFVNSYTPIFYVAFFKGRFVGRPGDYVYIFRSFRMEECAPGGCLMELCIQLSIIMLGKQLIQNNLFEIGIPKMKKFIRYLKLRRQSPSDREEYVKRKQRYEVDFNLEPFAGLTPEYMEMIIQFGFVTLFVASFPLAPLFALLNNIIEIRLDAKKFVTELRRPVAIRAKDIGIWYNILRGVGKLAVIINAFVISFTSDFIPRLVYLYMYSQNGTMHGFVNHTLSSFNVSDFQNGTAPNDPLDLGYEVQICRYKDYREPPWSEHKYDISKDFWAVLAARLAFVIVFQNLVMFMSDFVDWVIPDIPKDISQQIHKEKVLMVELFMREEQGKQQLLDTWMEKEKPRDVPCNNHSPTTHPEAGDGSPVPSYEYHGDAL
Experimental: A. Macroscopic current responses to repeated applications of Ca^2+ in various concentrations to the bath of inside-out patches isolated from mANO1-ETAR/HEK cells at holding potentials of −60 or +60 mV. Pipette and bath solution contained 140 mM NMDG-Cl.
B. Dose-response relationship of mANO1 activation by Ca^2+. Current responses were normalized versus those observed at 10 μM (−60 mV, n=8) or 3 μM Ca^2+ (+60 mV, n=8). Data points were fitted to the Hill's equation. (Error bars=Mean±S.E.M)
as §1
Ca^2+ in various concentrations applied to the bath (intracellular side) evoked macroscopic […] currents in a dose-dependent manner (Ehold=−60 mV) (FIG. 7A). […] The threshold concentration of Ca^2+ reached about 0.3 μM at −60 mV holding potential (FIG. 7B). Remarkably, ANO1 activation by Ca^2+ was voltage-dependent, which is also characteristic of endogenous CaCCs (Nilius, B. et al., Cell Calcium 22, 53-63 (1997), Kuruma, A. & Hartzell, H. C., J Gen Physiol 115, 59-80 (2000), Evans, M. G. & Marty, A., J Physiol 378, 437-60 (1986)). At a depolarized membrane potential (+60 mV), ANO1 was more sensitive to Ca^2+ and the concentration-response curve shifted to the left, resulting in an EC50 of 0.4 μM (FIG. 7B). Hill's coefficients of the concentration-response curves were 2.0 and 2.4 at −60 and +60 mV, respectively.

endothelin-1 (CSCSSLMDKECVYFCHLDIIW) [powerful vasoconstrictor; ligand of endothelin receptor subtype A (ETAR)]
endothelin-1 evoked Cl− currents (hANO1): evoked large Cl^− currents | endothelin-1 evoked inward currents (mANO1 [1]; 50 nM endothelin-1, mANO1-ETAR/HEK cells, whole cell, membrane potential −60 mV): evoked robust inward currents | second responses relative to first responses (tachyphylaxis) (mANO1 [1]; 50 nM endothelin-1 applied twice with a 5 min interval, ANO1/ETAR-HEK cells, n=12, no blocker): 87.1±11.4%

CNc1ccc2oc(C[C@H]3O[C@@]4(CC[C@H]3C)O[C@H]([C@H](C)C(=O)c3ccc[nH]3)[C@H](C)C[C@H]4C)nc2c1C(=O)O [A23187]
membrane potential change detected by fluorescent intensity (mANO1 [2]): evoked membrane potential change

Nc1ncnc2c1ncn2[C@@H]1O[C@H](COP(=O)(O)OP(=O)(O)OP(=O)(O)O)[C@@H](O)[C@H]1O [ATP]
membrane potential change detected by fluorescent intensity (mANO1 [2]): evoked robust change in membrane potentials | inward currents activated by ATP (mANO1 [1]; ATP 100 μM, mANO1 co-transfected with P2Y2R in HEK 293T cells, Ehold −60 mV): Large inward currents

NCCOB(c1ccccc1)c1ccccc1 [2APB]
block of ATP induced-membrane potential change (mANO1 [2]; pretreatment of 2APB, ANO1-stably expressing HEK cells): blocked

[Ca+2] [Ca^2+]
Hill's coefficient of concentration-response curve (mANO1 [3]; +60 mV): 2.4 | EC50 (mANO1 [3]; depolarized membrane potential +60 mV, read-out: EC50 for ANO1 activation): 400 nM | EC50 (mANO1 [3]; holding potential −60 mV, read-out: half-maximal concentration (EC50) for ANO1 activation): 2600 nM | Hill's coefficient of concentration-response curve (mANO1 [3]; −60 mV): 2.0 | threshold concentration for ANO1 activation (mANO1 [3]; −60 mV holding potential): about 0.3 μM
